Laboratory results taken from the supplement of paper PMC10307832.

Legend:
Assay in all cases: relative viability (nuclei count vs DMSO), 5 days (fraction); higher = more cells survive
Nelarabine + Phenformin = compound: COc1nc(N)nc2c1ncn2[C@@H]1O[C@H](CO)[C@@H](O)[C@@H]1O [Nelarabine] + N=C(N)NC(=N)NCCc1ccccc1 [Phenformin] (partner 250 µM)
Procedure, shortened: (§1)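 Lung cancer cell lines in 1536-well plates got either a single drug or a fixed anchor-drug dose together with five library-drug doses (not always all listed) in √10 steps, by pin tool, on the day after seeding. Nuclei were counted after 5 days, and relative viability is the treated-to-vehicle ratio of nuclei counts. Values are medians of duplicate plates.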

Adavosertib + Trametinib = compound: C=CCn1c(=O)c2cnc(Nc3ccc(N4CCN(C)CC4)cc3)nc2n1-c1cccc(C(C)(C)O)n1 [Adavosertib] + CC(=O)Nc1cccc(-n2c(=O)n(C3CC3)c(=O)c3c(Nc4ccc(I)cc4F)n(C)c(=O)c(C)c32)c1 [Trametinib] (partner 0.02 µM)
Procedure, shortened: as §1

Adavosertib + Pictilisib = compound: C=CCn1c(=O)c2cnc(Nc3ccc(N4CCN(C)CC4)cc3)nc2n1-c1cccc(C(C)(C)O)n1 [Adavosertib] + CS(=O)(=O)N1CCN(Cc2cc3nc(-c4cccc5[nH]ncc45)nc(N4CCOCC4)c3s2)CC1 [Pictilisib] (partner 1 µM)
Procedure, shortened: as §1

Adavosertib + AZD7762 = compound: C=CCn1c(=O)c2cnc(Nc3ccc(N4CCN(C)CC4)cc3)nc2n1-c1cccc(C(C)(C)O)n1 [Adavosertib] + NC(=O)Nc1cc(-c2cccc(F)c2)sc1C(=O)N[C@H]1CCCNC1 [AZD7762] (partner 0.2 µM)
Procedure, shortened: as §1

| Cell Line | relative viability (Nelarabine + Phenformin; first compound 0.01 µM) | relative viability (Nelarabine + Phenformin; first compound 0.03162 µM) | relative viability (Nelarabine + Phenformin; first compound 0.1 µM) | relative viability (Nelarabine + Phenformin; first compound 0.3162 µM) | relative viability (Nelarabine + Phenformin; first compound 1 µM) | relative viability (Adavosertib + Trametinib; first compound 0.01 µM) | relative viability (Adavosertib + Trametinib; first compound 0.03162 µM) | relative viability (Adavosertib + Trametinib; first compound 0.1 µM) | relative viability (Adavosertib + Trametinib; first compound 0.3162 µM) | relative viability (Adavosertib + Pictilisib; first compound 0.01 µM) | relative viability (Adavosertib + Pictilisib; first compound 0.03162 µM) | relative viability (Adavosertib + Pictilisib; first compound 0.1 µM) | relative viability (Adavosertib + Pictilisib; first compound 0.3162 µM) | relative viability (Adavosertib + AZD7762; first compound 0.01 µM) | relative viability (Adavosertib + AZD7762; first compound 0.03162 µM) | relative viability (Adavosertib + AZD7762; first compound 0.1 µM) | relative viability (Adavosertib + AZD7762; first compound 0.3162 µM) |
| --- | --- | --- | --- | --- | --- | --- | --- | --- | --- | --- | --- | --- | --- | --- | --- | --- | --- |
| RERF-LC-KJ | 0.436 | 0.427 | 0.403 | 0.403 | 0.425 | 0.782 | 0.853 | 0.851 | 0.929 | 0.568 | 0.636 | 0.519 | 0.358 | 0.987 | 1.02 | 1.02 | 0.878 |
| LU99A | 0.88 | 0.767 | 0.837 | 0.864 | 0.854 | 0.624 | 0.61 | 0.634 | 0.464 | 0.341 | 0.303 | 0.354 | 0.241 | 0.295 | 0.196 | 0.184 | 0.122 |
| PC-14 | 0.645 | 0.46 | 0.67 | 0.556 | 0.447 | 0.704 | 0.808 | 0.862 | 0.683 | 0.72 | 0.64 | 0.569 | 0.272 | 0.261 | 0.289 | 0.224 | 0.0765 |
| NCI-H650 | 0.505 | 0.425 | 0.46 | 0.457 | 0.461 | 0.935 | 1.01 | 0.942 | 1.07 | 0.926 | 1.04 | 1.05 | 0.805 | 0.736 | 0.809 | 0.411 | 0.221 |
| NCI-H1651 | 0.362 | 0.329 | 0.46 | 0.353 | 0.355 | 0.841 | 0.85 | 0.864 | 0.871 | 0.497 | 0.491 | 0.565 | 0.42 | 0.415 | 0.299 | 0.264 | 0.132 |
| NCI-H2087 | 0.577 | 0.408 | 0.397 | 0.457 | 0.569 | 0.217 | 0.204 | 0.207 | 0.2 | 0.86 | 0.947 | 0.833 | 0.923 | 1.37 | 1.21 | 1.3 | 1.03 |
| EKVX | 0.22 | 0.234 | 0.231 | 0.22 | 0.232 | 0.327 | 0.34 | 0.377 | 0.401 | 0.44 | 0.448 | 0.433 | 0.437 | 0.595 | 0.731 | 0.635 | 0.799 |
| NCI-H1975 | 0.472 | 0.389 | 0.4 | 0.399 | 0.432 | 0.303 | 0.309 | 0.327 | 0.415 | 0.267 | 0.279 | 0.261 | 0.19 | 0.713 | 0.677 | 0.663 | 0.641 |
| NCI-H647 | 0.641 | 0.301 | 0.631 | 0.501 | 0.427 | 0.561 | 0.432 | 0.428 | 0.415 | 0.453 | 0.471 | 0.405 | 0.318 | 0.351 | 0.358 | 0.167 | 0.0858 |
| NCI-H1755 | 0.63 | 0.548 | 0.547 | 0.659 | 0.619 | 0.818 | 0.78 | 0.818 | 0.744 | 0.433 | 0.451 | 0.4 | 0.326 | 0.455 | 0.33 | 0.327 | 0.253 |
| LXF-289 | 0.532 | 0.574 | 0.526 | 0.571 | 0.524 | 0.746 | 0.696 | 0.701 | 0.678 | 0.786 | 0.746 | 0.782 | 0.788 | 1.08 | 0.984 | 0.683 | 0.231 |
| NCI-H1993 | 0.527 | 0.486 | 0.448 | 0.499 | 0.503 | 0.42 | 0.449 | 0.535 | 0.561 | 0.858 | 0.818 | 0.932 | 0.719 | 0.905 | 0.828 | 0.697 | 0.807 |
| LCLC-97TM1 | 0.506 | 0.446 | 0.339 | 0.426 | 0.42 | 0.223 | 0.171 | 0.227 | 0.21 |  | 0.146 | 0.223 | 0.167 | 0.289 | 0.264 | 0.138 | 0.0845 |
| NCI-H2347 | 0.45 | 0.574 | 0.379 | 0.445 | 0.381 | 0.287 | 0.327 | 0.323 | 0.285 | 0.567 | 0.61 | 0.297 | 0.762 | 0.791 | 0.674 | 0.476 | 0.329 |
| LCLC-103H | 0.329 | 0.283 | 0.333 | 0.328 | 0.345 | 0.641 | 0.688 | 0.668 | 0.7 | 0.544 | 0.517 | 0.561 | 0.516 | 0.786 | 0.783 | 0.775 | 0.408 |
| NCI-H596 | 0.778 | 0.749 | 0.747 | 0.812 | 0.86 | 0.81 | 0.79 | 0.678 | 0.796 | 0.338 | 0.379 | 0.419 | 0.348 | 1.04 | 1.05 | 0.844 | 0.751 |
